Series [1] concerns Escherichia coli. Put plainly: Antibacterial activity against Escherichia coli at a concentration of 10 ug/mL. The series is classed as functional.
For series [2], the system named is Bacillus subtilis. Description: Antibacterial activity against Bacillus subtilis at a concentration of 40 ug/mL. In kind it is functional.
In series [3] the test system is Bacillus subtilis. Description: Antibacterial activity against Bacillus subtilis at a concentration of 80 ug/mL. In kind it is functional.
The nature of series [4]: Lethal dose after intraperitoneal administration in mice. In kind it is toxicity. Conditions: mouse, in vivo, ip; call rule not given here.
Series [5] relates to Escherichia coli. Description: Antibacterial activity against Escherichia coli at a concentration of 40 ug/mL. The series is classed as functional.
Series [6] in a line: Toxic effect after oral administration (6400 mg/kg) was determined in mice; No effect. The series is classed as toxicity, organism-based. The conditions noted are these: mouse, in vivo.
Series [7] concerns Escherichia coli. Put plainly: Antibacterial activity against Escherichia coli at a concentration of 20 ug/mL. The series is classed as functional.
The subject of series [8] is Bacillus subtilis. Description: Antibacterial activity against Bacillus subtilis at a concentration of 120 ug/mL. The series is classed as functional.
In series [9] the test system is Escherichia coli. Description: Antibacterial activity against Escherichia coli at a concentration of 80 ug/mL. The series is classed as functional.
Series [10] has as its system Bacillus subtilis. Description: Antibacterial activity against Bacillus subtilis at a concentration of 160 ug/mL. In kind it is functional.
Series [11] relates to Klebsiella pneumoniae. Description: Antibacterial activity against Klebsiella pneumoniae at a concentration of 120 ug/mL. The series is classed as functional.
The subject of series [12] is Klebsiella pneumoniae. Description: Antibacterial activity against Klebsiella pneumoniae at a concentration of 80 ug/mL. The series is classed as functional.
Series [13] deals with Klebsiella pneumoniae. Description: Antibacterial activity against Klebsiella pneumoniae at a concentration of 40 ug/mL. The series is classed as functional.
Series [14] relates to Klebsiella pneumoniae. Put plainly: Antibacterial activity against Klebsiella pneumoniae at a concentration of 160 ug/mL. In kind it is functional.

These results are taken from ChEMBL document CHEMBL1136322, “QSAR study on antibacterial activity of sulphonamides and derived Mannich bases” (Bioorg Med Chem Lett, 2003).

SMILES strings stand for the structures.

On to `Cc1cc(C)nc(NS(=O)(=O)c2ccc(NCNC(=O)c3ccc(NC(=O)c4cccnc4)cc3)cc2)n1`, for which the Zone of inhibition was 11.4 mm in the series on Escherichia coli [1]; 6 mm in the series on Bacillus subtilis [2]; 11.2 mm with Bacillus subtilis [3]; 13.7 mm in the series on Escherichia coli [5]; 13.9 mm with Escherichia coli [7]; 13.6 mm with Bacillus subtilis [8]. Moreover, the Zone of inhibition in the series on Escherichia coli [9] came out at 14.1 mm; in the series with Bacillus subtilis [10], 17.6 mm. This compound also showed a Lethal dose in [4] of 1000 mg/kg. For the same compound, the Toxic effect entry in series [6] is on record as “Not Active”.

For `Cc1cc(NS(=O)(=O)c2ccc(NCNC(=O)c3ccc(NC(=O)c4cccnc4)cc3)cc2)no1`, the Zone of inhibition in the series on Escherichia coli [1] was 11.3 mm; in the series with Klebsiella pneumoniae [11] it was 14.4 mm; in the series with Bacillus subtilis [2], 14.1 mm; in the series with Bacillus subtilis [3], 18.6 mm; with Klebsiella pneumoniae [12], 14.7 mm; in the series with Escherichia coli [5], 11.8 mm. The Zone of inhibition in the series with Klebsiella pneumoniae [13] amounted to 12.5 mm; in the series on Klebsiella pneumoniae [14] it was 13.7 mm; in the series on Escherichia coli [7], 11.5 mm; in the series on Bacillus subtilis [8], 20.7 mm; in the series with Escherichia coli [9] it was 13.4 mm; with Bacillus subtilis [10], 23.5 mm. The Lethal dose in series [4] stood at 1000 mg/kg. For the same compound, in [6], the Toxic effect entry is listed as “Not Active”.

With `O=C(NCNc1ccc(S(=O)(=O)Nc2ncccn2)cc1)c1ccc(NC(=O)c2cccnc2)cc1`, the Zone of inhibition in the series with Escherichia coli [1] came out at 10.4 mm; in the series on Klebsiella pneumoniae [11] it was 19.2 mm; with Bacillus subtilis [2] it was 15.4 mm; in the series with Bacillus subtilis [3] it was 20.4 mm; with Klebsiella pneumoniae [12], 18.3 mm; with Escherichia coli [5], 13.7 mm. For the same compound, the Zone of inhibition in the series on Klebsiella pneumoniae [13] was 18.9 mm; in the series on Klebsiella pneumoniae [14], 20.9 mm; in the series with Escherichia coli [7] it was 10.6 mm; in the series with Bacillus subtilis [8], 22.9 mm; in the series on Escherichia coli [9] it was 18.7 mm; in the series on Bacillus subtilis [10], 25.3 mm. The compound further registered a Lethal dose in series [4] of 1000 mg/kg. In addition, the Toxic effect entry in series [6] was “Not Active”.

As to `N=C(N)NS(=O)(=O)c1ccc(NCNC(=O)c2ccc(NC(=O)c3cccnc3)cc2)cc1`, the Zone of inhibition with Escherichia coli [1] came to 10.9 mm; in the series on Escherichia coli [5], 11 mm; with Escherichia coli [7] it was 11.4 mm; with Escherichia coli [9], 11.7 mm. The Lethal dose in series [4] was 1000 mg/kg. In addition, the Toxic effect result in series [6] was “Not Active”.

For `Cc1nnc(NS(=O)(=O)c2ccc(NCNC(=O)c3ccc(NC(=O)c4cccnc4)cc3)cc2)s1`, the Zone of inhibition with Escherichia coli [1] was 12.4 mm; in the series on Escherichia coli [5], 14.4 mm; in the series with Escherichia coli [7], 14.9 mm; with Escherichia coli [9], 15 mm. The compound further displayed a Lethal dose in series [4] of 1000 mg/kg. The Toxic effect result in [6] was “Not Active”.

For the compound `NS(=O)(=O)c1ccc(NCNC(=O)c2ccc(NC(=O)c3cccnc3)cc2)cc1`, the Zone of inhibition was determined as 13.1 mm in the series on Escherichia coli [1]; 13.7 mm in the series on Klebsiella pneumoniae [11]; 12 mm in the series on Klebsiella pneumoniae [12]; 13.2 mm in the series on Escherichia coli [5]; 11.1 mm in the series on Klebsiella pneumoniae [13]; 21.4 mm with Klebsiella pneumoniae [14]. For the same compound, the Zone of inhibition was 12.7 mm in the series with Escherichia coli [7] and 13.2 mm in the series with Escherichia coli [9].

On to `Nc1ccc(S(=O)(=O)Nc2ncccn2)cc1` [SULFADIAZINE], for which the Zone of inhibition with Escherichia coli [1] is 9.7 mm; in the series with Klebsiella pneumoniae [11] it was 29.5 mm; with Bacillus subtilis [2], 20.8 mm; in the series on Bacillus subtilis [3] it was 27.2 mm; with Klebsiella pneumoniae [12], 29.2 mm; in the series on Escherichia coli [5], 22.2 mm. Also, the Zone of inhibition in the series with Klebsiella pneumoniae [13] was 27 mm; with Klebsiella pneumoniae [14], 25.6 mm; with Escherichia coli [7], 17.2 mm; in the series with Bacillus subtilis [8], 26.3 mm; in the series with Escherichia coli [9] it was 25.5 mm; in the series on Bacillus subtilis [10], 26.9 mm.

For the compound `Cc1cc(C)nc(NS(=O)(=O)c2ccc(N)cc2)n1` [SULFAMETHAZINE], the Zone of inhibition with Escherichia coli [1] was 15.1 mm; in the series on Bacillus subtilis [2] it was 15.4 mm; in the series on Bacillus subtilis [3] it was 19.9 mm; in the series on Escherichia coli [5] it was 18.8 mm; in the series with Escherichia coli [7], 16.9 mm; in the series on Bacillus subtilis [8], 21.7 mm. The Zone of inhibition in the series on Escherichia coli [9] turned out to be 18.5 mm; in the series with Bacillus subtilis [10], 22 mm.

`Cc1nnc(NS(=O)(=O)c2ccc(N)cc2)s1` [SULFAMETHIZOLE]: the Zone of inhibition in the series on Escherichia coli [1] came out at 16.2 mm; in the series on Escherichia coli [5], 22.2 mm; in the series on Escherichia coli [7], 17.4 mm; with Escherichia coli [9] it was 25.5 mm.

Regarding `Cc1cc(NS(=O)(=O)c2ccc(N)cc2)no1` [SULFAMETHOXAZOLE], the Zone of inhibition with Escherichia coli [1] amounted to 19.6 mm; in the series on Klebsiella pneumoniae [11], 26.4 mm; in the series on Bacillus subtilis [2], 22.8 mm; with Bacillus subtilis [3] it was 25.4 mm; in the series with Klebsiella pneumoniae [12], 22.4 mm; in the series on Escherichia coli [5], 23.2 mm. The Zone of inhibition was found to be 11.6 mm with Klebsiella pneumoniae [13]; 6 mm with Klebsiella pneumoniae [14]; 22.9 mm with Escherichia coli [7]; 27.4 mm with Bacillus subtilis [8]; 23.6 mm in the series on Escherichia coli [9]; 27.9 mm in the series with Bacillus subtilis [10].

Take `Nc1ccc(S(N)(=O)=O)cc1` [SULFANILAMIDE]: the Zone of inhibition was 20.4 mm in the series on Escherichia coli [1], 22.8 mm with Escherichia coli [5], 22.3 mm in the series on Escherichia coli [7] and 25.4 mm in the series on Escherichia coli [9].
